Reference: patent US5120713A, “Treatment of obesity with an alpha-2-adrenergic agonist and a growth hormone releasing peptide” (Applied Research Systems ARS Holding N.V., priority 1990, dated 1992)
No end group written: not given here.

Key:
plasma GH [1] = test: Plasma GH response (RIA) in prepubertal obese children after clonidine, galanin and/or GHRH; assay type: in vivo, human (obese children); settings: for Mean Peak GH Response: Obese patient group, Clo 150 micrograms/m^2 oral at time 0, GHRH 1 microgram/kg i.v. bolus at 60 min, Gal 50 pmol/kg/min infusion 55-120 min
Protocol: Eight prepubertal obese children (boys), aged 10 to 12.4 years, all in good general health and taking no medication, participated in the study with informed consent (parent and child). All had height within normal percentiles for chronological age. Bone age was advanced 6-24 months in all but one patient and weight was above the […] for chronological age in all cases. The children were tested six times at random intervals ranging from 7 to 10 days, each patient serving as their own control. Studies commenced at 0900 h after an overnight fast and bed rest and thirty minutes after the insertion of a nontrombogenic catheter for blood withdrawal in a forearm vein. The study consisted of administering clonidine (Catapresan, Boehringer Ingelheim, Spain) orally at 150 micrograms/m^2 at time 0 followed by administering GHRH (GRF 1-29, Serono, Spain) as an intravenous bolus at 1 microgram/kg at time 60 minutes. The control experiments consisted of administering on separate occasions either clonidine at time 0 or GHRH at time 60 minutes. Blood samples for GH assays (RIA, BioMerieux, France) were taken at 15 minute intervals for two hours. The mean intra-assay coefficient of variation was 5.9, 4.6 and 3.9% at mean GH concentrations of 1.5, 8 and 24 micrograms/L respectively. To avoid inter-assay variations, all samples from a subject were run in the same assay.
(§1) Galanin (Gal) was administered alone, with clonidine (Clo) and with GHRH by infusion as a saline solution at 50 pmol/kg/min through a Millex-GY (0.22 um, Millipore) filter at time 55 to 120 minutes in all experiments. Also, for comparison purposes a similar group of short stature children diagnosed as having constitutional growth delay (CGD) were administered GHRH, galanin plus GHRH, and clonidine plus GHRH (previous study) by the same procedure.

plasma GH [2] = test: Plasma GH response in short children with constitutional growth delay (CGD); assay type: in vivo, human (short stature children
Protocol: as §1

GH = settings: normal children and adolescents; reported (ref 9); cited from earlier work

Clc1cccc(Cl)c1NC1=NCCN1 [Clo, 2-(2,6-dichloroanilino)-2-imidazoline]
Mean Peak GH Response (plasma GH [1]): 2.9 ± 0.8 µg/L | mean peak (maximal) plasma GH level (plasma GH [1]; obese children): 2.9 ± 0.8 µg/L | plasma GH response (in words) (plasma GH [1]; obese children): did not produce any significant plasma GH increase | maximal GH value in one patient (plasma GH [1]; obese children, single responding patient, at time 105 min): 6.5 µg/L

GHRH: growth hormone releasing hormone, GRF 1-29 (Serono, Spain) (YADAIFTNSYRKVLGQLSARKLLQDIMSR; ends and bridges not checked; UniProt P01286 32-60, looked up, fragment)
Mean Peak GH Response (plasma GH [1]): 9.6 ± 2 µg/L | mean peak (maximal) plasma GH level (plasma GH [1]; obese children): 9.6 ± 2 µg/L | plasma GH response (in words) (plasma GH [1]; obese children): slight but significant increase in plasma GH | time of GH peak after administering GHRH (plasma GH [1]; obese children): 45 min | Mean Peak GH Response (plasma GH [2]; CGD patient group, same procedure): 17.1 ± 4.3 µg/L | mean GH peak (plasma GH [2]; control group of short children with constitutional growth delay): 17.1 ± 4.3 µg/L | GHRH-induced GH response (GH): 25.8 ± 5.6 µg/L
